The values that follow come from patent US20070003672A1, “Tri-part calcium fortified compositions and methods of making the same” (priority 2005, published 2007).

Where “and” joins values, the source holds several entries; their conditions need not be identical. Equal entries are not always repeated.

The first data set is described as follows: Physical/chemical attributes (calcium, pH, titratable acidity, Brix, Brix/Acid ratio) of calcium fortified orange juice. It is filed as physicochemical. Set-up: unit not given here. The note with it: orange juice fortified at 450 mg/100 mL calcium load. An excerpt: The flavor of orange juice, for example, can be characterized by a unique balance of sweetness resulting from the sugar content and tartness resulting from the acid content. A challenge of fortifying orange juice with nutritionally significant amounts of calcium is maintaining the sweet to tart balance. This balance can be expressed analytically as the Brix to acid ratio, as described above. The Brix component of the ratio is the measure of soluble solids in the beverage often determined by a refractometer. The acid component can be determined by titration with a base such as sodium hydroxide. The Brix to acid ratio is an analytical representation or measure of the sweet to tart taste balance.
A variety of calcium salts, i.e., the calcium components, were evaluated to determine their effects on the Brix-acid ratio. In this evaluation, orange juices fortified with different calcium salts were prepared at 450 mg/100 mL of calcium load. […]
Orange juices fortified with various combinations of calcium salts, i.e. calcium components, were evaluated based on physical/chemical attributes compared to unfortified orange juice.
Regarding `O.O.O=P([O-])([O-])O.[Ca+2]` [dicalcium phosphate dihydrate], the “Calcium - Juice (48 Hours)” value worked out at 181.
The same measure, in the same setting: the result for `O=P([O-])([O-])[O-].O=P([O-])([O-])[O-].[Ca+2].[Ca+2].[Ca+2]` [tricalcium phosphate] reads 182.
The same measure, in the same setting: for `O=P([O-])([O-])[O-].O=P([O-])([O-])[O-].[Ca+2].[Ca+2].[Ca+2]` [tricalcium phosphate (fine), tricalcium phosphate] the value was 197.
As for `O=C[O-].O=C[O-].[Ca+2]` [calcium formate], the “Calcium - Juice (48 Hours)” value is listed as 206.
On the same count and under the same terms, the result for `O=P([O-])([O-])O.[Ca+2]` [dicalcium phosphate anhydrous] reads 203; that for `O.O=C([O-])CCC(=O)[O-].[Ca+2]` [calcium succinate monohydrate], 206.
Same read-out and setting: the result for `O=C([O-])CC(O)C(=O)[O-].[Ca+2]` (stereo not shown) [calcium malate] reads 213; that for `O.O=P([O-])(O)O.O=P([O-])(O)O.[Ca+2]` [monocalcium phosphate monohydrate], 207; that for calcium gluconate monohydrate, 198.
Same read-out and setting: the result for `N[C@@H](CCC(=O)[O-])C(=O)[O-].O.O.O.O.[Ca+2]` [calcium L-glutamate tetrahydrate] reads 207.
Turning to `O.O=P([O-])([O-])OCC(O)CO.[Ca+2]` (stereo not shown) [calcium glycerophosphate monohydrate], the “Calcium - Juice (48 Hours)” value came to 187.
As to `O.O.O=C([O-])[C@H](O)[C@@H](O)C(=O)[O-].[Ca+2]` [calcium L-tartrate dihydrate], the “Calcium - Juice (48 Hours)” value was determined as 140.
For the compound `CC(O)C(=O)[O-].CC(O)C(=O)[O-].O.O.O.O.O.[Ca+2]` (stereo not shown) [calcium lactate pentahydrate], the “Calcium - Juice (48 Hours)” value was 204.
On the same count and under the same terms, for calcium ascorbate dihydrate the value was 195; for `O.O.[Ca+2].[Cl-].[Cl-]` [calcium chloride dihydrate], 206.
Regarding `O=C([O-])[O-].[Ca+2]` [calcium carbonate], the “Calcium - Juice (48 Hours)” value stood at 200.
On the same count and under the same terms, for `O=C([O-])CC(O)(CC(=O)[O-])C(=O)[O-].O=C([O-])CC(O)(CC(=O)[O-])C(=O)[O-].[Ca+2].[Ca+2].[Ca+2]` [tri-calcium citrate] the value was 177; for `O.O.O.O=C([O-])/C=C/C(=O)[O-].[Ca+2]` [calcium fumarate trihydrate], 202.

The data set is the same for the next values; noted with them: orange juice fortified at 450 mg/100 mL calcium load, citrate.
As to `CC(O)C(=O)O.O=C(O)[C@H](O)[C@@H](O)[C@H](O)[C@H](O)CO.O=C([O-])CC(O)(CC(=O)[O-])C(=O)O.[Ca+2]` [calcium lactate gluconate citrate], the “Calcium - Juice (48 Hours)” value was 200 and 202.
